Assays:
[1] = test system: TH+ dopaminergic neurons in SNpc; assay: MPTP mouse model: TH+ dopaminergic neurons in SNpc (stereology, densitometry, volume); type: in vivo, mice
Protocol: As described by Vernice Jackson-Lewis & Serge Przedborski (2007), 23.4 mg/kg MPTP.HCl (equivalent to 20 mg/kg free base) in 10 ml/kg body wt. of saline is administered intraperitoneally (i.p.) for 4 times at 2 h intervals.
All mice are sacrificed 9 days post MPTP administration and brains are processed for immunohistochemistry.
Mice are anaesthetized using Halothane BP (Piramal Healthcare) inhalation and perfused intracardially with normal saline followed by 4% PFA in 0.1 M phosphate buffer, pH 7.4. Brains are removed quickly and post-fixed with 4% PFA for 24 h-48 h at 4° C. Following cryoprotection in 15% and 30% sucrose, 40 μm thick coronal cryosections of midbrain are collected serially on gelatinized slides. Immunoperoxidase labelling protocol as identical to that reported. Briefly, endogenous peroxidase is quenched using H2O2 (0.1%) in methanol (70%), followed by blocking of non-specific staining by buffered solution (3%) of bovine serum albumin for 4 h at room temperature. Sections are incubated with TH primary antibody (1:500) followed by biotin conjugated secondary antibody (1:200 dilution, Vector Laboratories). Tertiary labelling is performed with avidin-biotin complex solution (1:100, Vector Laboratories). Staining is visualized using 3′-3′-diaminobenzidine (0.05%) as a chromogen in a solution of 0.1M acetate imidazole buffer (pH 7.4) and H2O2 (0.1%). Negative controls are processed identically, except that primary antibody is replaced with dilution buffer.
As described by Y. Fu et al., SNpcis delineated using the 4× objective of Olympus BX61 Microscope (Olympus) equipped with Stereo Investigator Software Version 7.2 (MicroBrightField). Stereological quantification is performed using optical fractionator probe with slight modifications(P. A. Alladi et al.). Briefly, every sixth midbrain section containing SNpc is chosen and TH^+ cells are counted under 100× objective, with a regular grid interval of 22500 μm^2 (x=150 μm, y=150 μm) and counting frame with an area of 3600 μm^2 (x=60 μm, y=60 μm) (FIG. 10B). Mounted thickness is determined at every fifth site, averaging to 25 μm. Guard zone 4 μm is applied on either side, thus providing 17 μm of z-dimension within optical dissector. The quantification is performed starting with first anterior appearance of TH^+ neurons in SNpc to caudal most part. The SNpc volume is determined by planimetry (FIG. 10C) and total numbers of neurons according to mean measured thickness are noted.
High magnification images of TH stained nigral DAergic neurons, captured for offline assessment of Tyrosine Hydroxylase (TH) enzyme expression levels=used. Expression intensity is measured using a Windows based image analysis system (Q Win V3, Leica Systems). Cumulative mean is derived from the values obtained from sampling, approximately 200 DAergic neurons per animal. Intensity output is measured on a grey scale of 0-255, where 0 equals intense staining and 255 means absence of staining.
The mice are distributed into three groups' viz., vehicle, MPTP and MPTP+XCT 790 injected respectively. The vehicle group receives intraperitoneal injections of dimethyl sulfoxide (DMSO) injections i.e. the solvent. The MPTP group receives 23.4 mg/kg MPTP.HCl in 10 ml/kg body wt. of saline is administered intraperitoneally for 4 times at 2 h interval. The MPTP+XCT 790 group mice are injected with 5 mg/kg body wt, of XCT 790 dissolved in DMSO, alongside the first MPTP injection. […]

Atg8 = Atg8 immunolocalization in lace plant; type: cell-based, Aponogeton madagascariensis; details: two hours; same modulator concentrations as MDC; control 0.90±0.08
Protocol: Whole leaves are treated for two hours prior to fixation in 100% Methanol at 37° C. and then hydrophilized to 20% methanol by adding distilled water at 60° C. every two minutes for 32 minutes. Samples are then sectioned and placed on a multiwall slide and allowed to air dry for 10 minutes to facilitate membrane permeabilization. Blocking is done for 30 minutes at 37° C. with 4% low fat milk powder in 1× microtubule stabilization buffer MTSB (Modified 2× MTSB stock solution: 15 g PIPES, 1.9 g EDTA, 1.22 g MgSO4*7H2O and 2.5 g KOH—pH 7.0). Primary antibody incubation for anti-rabbit ATG8 (Agrisera, AS14 2769) is done at a 1:1000 dilution in 1× MTSB for 30 minutes at 37° C. Samples are then washed for 5 minutes, 3 times with 1× MTSB. Secondary antibody incubation with Goat anti-rabbit Dylight 488 (Agrisera AS09 633) at a 1:2000 dilution in 1× MTSB is done for 30 minutes at 37° C. and then samples are rinsed as above. Tissues are mounted in Mowiol 4-88 solution (Sigma, 81381) and scanned via confocal microscopy as mentioned above. The mean number of puncta per cell is determined using maximum intensity projections (MIPs) for each replicate. The total number of cells within a field of view are counted manually and the number of puncta are counted automatically using ImageJ.

LC3-II = assay: LC3 processing assay in SH-SY5Y cells; type: cell-based, human; details: 5 μM, 2 h; untreated vs treated
Protocol: The autophagy assays are performed by seeding equal numbers of sub-confluent 1-HeLa or SH-SY5Y cells in 6-well dishes and allowed to attach for 24 h, then treated with XCT 790 (5 μM) and/or 3-MA (5 mM) and/or lithium chloride (10 mM) in fed condition for 2 h. After treatments, the cell lysates are analyzed by immunoblotting.
Mammalian cell lysates preparation: After treatments, cells are collected in Laemmli buffer to perform LC3 processing assay, P70S6K, AMPK, ULK1 and 4E-BP1 immunoblotting. Samples are electrophoresed onto SDS-PAGE (8-15%) and then transferred onto PVDF (Bio-Rad) membrane through Transblot turbo (Bio-Rad). Blots are stained with Ponceau S, then probed with appropriate primary antibodies at 4° C. for overnight and subsequently HRP-conjugated secondary antibody. Signals are attained using enhanced chemiluminescence substrate (Clarity, Bio-Rad) and imaged using a gel documentation system (G Box, Syngene) and then bands are quantitated using Image software (NIH).

## O=C1Nc2cc(Br)ccc2/C1=C1/Nc2ccccc2/C1=N\O [6-Bio, (2′Z,3′E)-6-Bromoindirubin-3′-oxime]
[1]; 5 mg/kg i.p., Co and Pro groups
  decrease in SNpc volume upon MPTP administration: not seen

## Cc1ccc(S(=O)(=O)/C=C/C#N)cc1 [Bay11, 3-[(4-methylphenyl)sulfonyl]-(2E)-propenenitrile]
Atg8
  mean number of Atg8 puncta per cell: 0.22±0.03

## COc1cc(C=C(C#N)C(=O)Nc2nnc(C(F)(F)F)s2)ccc1OCc1ccc(C(F)(F)F)cc1C(F)(F)F [XCT 790, 3-[4-(2,4-Bis-trifluoromethylbenzyloxy)-3-methoxyphenyl]-2-cyano-N-(5-trifluoromethyl-1,3,4-thiadiazol-2-yl)acrylamide]
LC3-II
  accumulation of LC3-II levels: ~2.5 fold
[1]; 5 mg/kg, MPTP+Co vs MPTP
  prevention of SNpc volume shrinkage: approximately 85%
[1]; 5 mg/kg, co-administration with MPTP
  alleviation of MPTP induced dopaminergic neuronal loss: 80%
